Data on four compounds can be found in US20150110847A1, “Substrate Mediated Enzymes Prodrug Therapy” (Aarhus Universitet, priority 2012, published 2015).

Like-named read-outs stand apart in the source and are kept apart here.

Data set [1] deals with cells cultured on μS PVA. The data set is described as follows: Viability of cells on μS PVA hydrogels with enzyme and/or prodrug (FIG. 17). The data set is classed as cell-based. Conditions: full SMEPT conditions: μS PVA with immobilized enzyme and 1 μM SN-38 glucuronide. The text has this:
FIG. 17: Viability of cells on μS hydrogels with enzyme and/or prodrug.

The subject of data set [2] is HepG2. The data set is described as follows: SMEPT using static cell culture on LbL films, PrestoBlue cell viability (FIG. 21). Here is the method: Glass cover-slips. LbL assembly of PMA and PLL with incorporated enzyme was performed on glass cover-slips to evaluate the therapeutic effect of SN-38 under static conditions. Glass cover slips of 9 mm were sonicated in ethanol for 10 minutes, rinsed with ultrapure water, and dried with argon prior to UV sterilization for 20 minutes in a 48 well plate. Solutions of PLL and PMA, were incubated at 37° C. for 10 min prior to film assembly. Alternating layers were composed as (PLL/PMA)2.5-b-glucuronidase-(PMA/PLL)2 or […] for films without enzyme. Each layer was allowed to adsorb for 10 min at 37° C. followed by a washing step in HEPES buffer. The enzyme b-glucuronidase was added at a concentration of 20 μg/mL in HEPES buffer solution.
(§1) Cell Culture. The hepatocellular carcinoma cell line (HepG2) was used for all cell experiments. HEPG2 were cultured in a 75 cm^2 culture flask (3E6 cells/flask) in 10 mL medium (Minimum Essential Medium Eagle (MEME) supplemented with 10% fetal bovine serum (FCB), 1% penicillin and streptomycin, 1% non-essential amino acids, and 2 mM L-glutamine) and incubated at 37° C. and 5% CO2.
Static cell culture. The LbL coated glass slides were UV sterilized for 10 minutes prior to cell seeding. HepG2 cells with a starting density of 75.000 cells in 300 μL were seeded per well. The cells were allowed to adhere overnight before adding the (pro)drug SN-38 of 1 μM and incubate for 48 h. 200 μL of fresh media was added together with 20 μL of PrestoBlue cell viability reagent and evaluated on an EnspireMultilabel Plate Reader after 30 minutes of incubation.
A glucuronide prodrug of a commercial anticancer drug, SN-38, was used. […] Further, hepatocellular carcinoma (HCC) is a condition successfully addressed using tools for localized drug delivery, but solitary drugs are currently accommodated for this mode of delivery.
Hepatocytes were seeded on the biocatalytic film (PLL/PMA)2.5/β-Glu/(PGA/PMA)2 and allowed to adhere overnight before refreshing the media and adding the (pro)drug at 1 μM.

For data set [3], the system named is HepG2. As to the method: as §1
Data set [4] deals with HepG2. Briefly: Cell viability in three sequentially connected perfusion chambers, site-specific delivery (FIG. 25). The data set is classed as cell-based. Conditions: for viability of cells reduced to: 1 μM, 4 h flow, further 48 h culture. The text has this:
For the evaluation of drug delivery to subsequent chambers tubings were connected so that the flow of solution would enter the first chamber containing PEMs with enzyme and subsequent flow to chamber 2 and chamber 3 with cell culture on TCPS.
It is assumed that when the drug is synthesized within the coating immediately underneath the cultured cells, through increased local concentration of the drug, the synthesized therapeutic would exert a higher local effect in adhering cells as compared to the cells growing “downstream”. […] Outlet from chamber 1 was connected to the inlet for chamber 2, and in turn, outlet of chamber 2 was connected to the inlet of chamber 3. Hepatocytes were seeded in all three chambers, but only the cells in chamber 1 were cultured on biocatalytic coatings. Solution of SN-38 glucuronide (1 μM in cell culture media) was administered to the interconnected perfusion chambers at constant shear stress for 4 h. Subsequently, the perfusion chambers were flushed with (pro)drug-free media and the cells were cultured for a further 48 h, prior to the assessment of the cell viability.
The viability of cells cultured on biocatalytic coatings was reduced to ˜30% verifying a pronounced therapeutic response achieved via SMEPT under flow conditions. Viability of cells in chamber two was reduced to ˜60% thus being much higher than that for cells cultured on biocatalytic coatings. Taking into account dose response of HepG2 cells to SN-38, viability difference between 30% and 60% corresponds to ˜10-fold difference in the concentration of the drug used for the treatment. […] It is therefore highly likely that local therapeutic effect would exceed that at “downstream” location to a greater extent than illustrated in FIG. 25. Our data provide experimental proof of the site-specific drug delivery achieved via SMEPT and thus, illustrate therapeutic advantage associated with this technique.

In data set [5] the test system is HepG2. Conditions: previously shown by the applicants; cited from earlier work.
Data set [6] relates to b-Galactosidase. Here is the method:
Microstructured PVA hydrogels were assembled using polymer solutions containing b-Galactosidase (1 g/L), stabilized using 0.5 M sodium sulfate and incubated in PBS for 1 h prior analysis. We used a substrate for b-Gal conversion of which affords nitric oxide (NO), a potent and multi-functional signaling and therapeutic molecule. This radical—molecule has a very short half-life and is rapidly converted into nitrite/nitrate, and the latter are conventionally used to quantify the levels of generated nitric oxide. Analysis of nitrite is conducted via a Griess assay, i.e. a colorimetric test establishing a linear correlation between the concentration of nitrite and absorbance at 530 nm; cf. FIG. 31.
b-Gal-NONOate was administered onto the enzyme-functionalized hydrogels at varied concentrations and incubated for 30 min, upon which the levels of […] were quantified via the Griess assay.

For data set [7], the system named is HepG2. The data set is described as follows: Cellular internalization of in situ generated fluorescent product, flow cytometry (FIG. 4). Conditions: for levels of cellular fluorescence (cargo internalization): enzyme in μS PVA hydrogel, versus solution based conversion; for levels of cellular fluorescence (cargo internalization) / fluorescence of cultured cells: 2.5 μg/mL, 24 h; for fluorescence of cultured cells: prodrug in absence of the enzyme. The data set is classed as cell-based. Here is the method: FIG. 4. Utility of SMEPT in generation and cellular internalization of in situ produced product is verified through quantification of fluorescence of hepatic cells cultured on the μS PVA hydrogels. […] Experimental conditions: (A) 1 g/L enzyme in the polymer solution; initial concentration of fluorescein diglucuronide, 2.5 μg/mL; incubation time 24 h; (B) 1 g/L enzyme in the polymer solution; initial concentration of fluorescein diglucuronide 0.25 (top) and 0.025 (bottom) […].
Towards this goal, hydrogels were prepared using solutions of PVA supplemented with a synthetic polypeptide, poly-L-lysine (PLL). […] Enzyme- and PLL-containing PVA hydrogels were assembled as described above, after which time μS thin films were used as substrates for adhesion and proliferation of a model cell line, HepG2. […] Furthermore, advanced efforts in engineering of liver tissue require co-culturing of mammalian cells (e.g. hepatocytes and Kupffer cells), a challenge which is successfully addressed using μS and micro-patterned substrates. These notions together justify the use of a hepatic cell line and μS PVA hydrogels for the development of SMEPT.
Initial, internalization of a fluorescent reporter molecule produced via SMEPT and via a solution-based conversion was compared. To achieve this, the cells were seeded on μS PVA hydrogels and were allowed 24 h for attachment, after which time the media was changed to fresh media and, for solution based prodrug conversion, equivalent amount of the enzyme as that contained within μS PVA hydrogels was administered to the cultured cells. At this point, the samples were charged with fluorescein di-glucuronide to a 2.5 μg/mL concentration (3.65 μM). Upon 24 h incubation, fluorescence of the harvested cells was quantified using flow cytometry. […] We note that solution based prodrug conversion is used herein only as a measure to verify protein activity and utility of SMEPT. In the human body, β-glucuronidase has a limited spread and an activity markedly lower as compared to bacterial copy used in this study. The latter notion provides for a low level of “background” prodrug conversion and contributes to specificity of drug delivery achieved with the use of β-glucuronidase and glucuronide prodrugs, as documented for ADEPT and inherited by SMEPT.
For further characterization of SMEPT, the time course of cellular internalization of the in situ generated fluorescent reporter product was followed at two concentrations of the fluorogenic pro-drug, 0.025 and 0.25 μg/mL (36.5 and 365 nM, respectively). At specified time points, fluorescence of the detached cells was quantified using flow cytometry, FIG. 19B. […] Further to this, at each time point, higher pro-drug concentration affords a higher level of fluorescence registered in the cultured cells, i.e. a greater amount of internalized cargo. Together, these two graphs present time- and dose-dependent internalization of reporter cargo and illustrate the tools of control offered by SMEPT for substrate mediated drug delivery.
On the technique in general: A flow cytometer gives signals particle by particle.

Data set [8] addresses T1, b-glucuronidase (Escherichia coli, UniProt P05804).
T1 construct: purchased
Briefly: Prodrug conversion in flow by biocatalytic LbL films in perfusion chambers (FIG. 23). The data set is classed as biochemical. The settings on record: constant flow. As to the method: For evaluation of the enzymatic activity the prodrug fluorescein di-glucuronide, FdG, of 5 μg/mL was added to syringes and connected to the coated perfusion chambers. A syringe pump was used to control the shear stress using 0.15, 0.074, 0.03 dyn/cm^2. An “on demand” conversion of prodrug under flow conditions a syringe with buffer was used as a control. The “on” and “off” was then controlled by the switch of syringes to the given μ-slide chamber.
For multiple layers of enzyme the PEMs were constructed as (PMA/PLL)4 keeping the total amount of layers constant and adding the enzyme in between each layer of PLL.
All evaluations were measured out on the PlateReader by collecting aliquots from the outlet tubing during the experiment and transferred to a 96-well pate.
A unique opportunity associated with multilayered surface coatings relates to the possibility to build films with a desired thickness for which polymer adsorption can be performed to a desired number of layers. Similarly, LbL deposition would allow controlling the amount of enzyme within the thin film through a facile change in the number of protein deposition steps. To show this, polymer coatings were assembled using one or three layers of adsorbed β-Glu keeping the total number of polymer layers constant. […] While a single layer of the enzyme achieved a <[…] concentration of the product, three protein layers suffice for a build-up of product concentration to over 30 nM, all achieved under dynamic, constant flow conditions.

T1 sequence (P05804 whole entry): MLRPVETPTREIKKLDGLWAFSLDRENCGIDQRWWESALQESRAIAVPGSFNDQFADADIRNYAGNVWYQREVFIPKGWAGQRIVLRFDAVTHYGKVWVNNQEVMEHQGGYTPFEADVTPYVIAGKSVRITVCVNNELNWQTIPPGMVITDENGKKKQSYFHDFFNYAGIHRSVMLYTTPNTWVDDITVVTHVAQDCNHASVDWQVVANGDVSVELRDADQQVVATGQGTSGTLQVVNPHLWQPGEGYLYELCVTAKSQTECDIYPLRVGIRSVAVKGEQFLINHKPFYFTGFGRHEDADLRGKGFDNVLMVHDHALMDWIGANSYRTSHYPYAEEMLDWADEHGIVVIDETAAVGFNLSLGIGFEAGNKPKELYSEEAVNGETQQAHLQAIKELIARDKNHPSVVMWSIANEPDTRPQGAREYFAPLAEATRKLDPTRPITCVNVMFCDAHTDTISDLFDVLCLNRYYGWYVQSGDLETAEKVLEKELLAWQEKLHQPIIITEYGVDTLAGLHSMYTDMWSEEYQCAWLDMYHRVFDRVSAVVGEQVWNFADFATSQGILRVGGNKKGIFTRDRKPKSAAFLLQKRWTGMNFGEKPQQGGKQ

For the compound `CCc1c2c(nc3ccc(O[C@@H]4O[C@H](C(=O)O)[C@@H](O)[C@H](O)[C@H]4O)cc13)-c1cc3c(c(=O)n1C2)COC(=O)[C@]3(O)CC` [SN-38 glucuronide], in data set [1], the “cytotoxic effect (viability of cells)” value is “cytotoxic effect which is comparable to the active drug SN-38”. Besides, the “cell viability reduced by” value in data set [2] (SMEPT: hepatocytes on β-Glu-containing LbL film, 1 μM, 48 h incubation, compared to control) is reported as about 80%. The “change in cell viability” value in data set [2] (prodrug on (PLL/PMA)4.5 coatings, no enzyme incorporated, 1 μM, 48 h) is on record as “minor albeit statistically significant decrease in the cell viability”. Also, the “reduction in viability of the hepatocytes compared with SMEPT” value in data set [2] (solution based EPT: prodrug and enzyme both in solution, enzyme-free LbL films, 1 μM, 48 h) was “similar”. For the same compound, in data set [3] (1 μM, 4 h flow on biocatalytic film, then static drug-free culture, total 48 h, normalized to cells without (pro)drug), the “decrease in cell viability by” value is about 70%. In addition, the “viability of cells reduced to” value was about 30% in data set [4] (chamber 1, cells on biocatalytic coatings) and about 60% in data set [4] (chamber two, downstream, no biocatalytic coating). In data set [5], the “inherent cytotoxic effects on hepatocytes” value is on record as “did not have an inherent cytotoxic effects on hepatocytes”.

For the compound `CCc1c2c(nc3ccc(O)cc13)-c1cc3c(c(=O)n1C2)COC(=O)[C@]3(O)CC` [SN-38], the “reduction in viability of the hepatocytes compared with SMEPT” value in data set [2] was “similar”. Further, in data set [3], the “cell culture time required for a well-pronounced therapeutic effect” value was “at least 48 h” and the “time the presence of the drug was required for a pronounced therapeutic effect” value is reported as at least 4 h. Moreover, the “difference in the concentration of the drug corresponding to viability difference between 30% and 60%” value in data set [4] (from dose response of HepG2 cells to SN-38) is about 10 fold.

For the compound `[O-]/[N+](=N\O[C@@H]1O[C@H](CO)[C@H](O)[C@H](O)[C@H]1O)N1CCCC1` [b-Gal-NONOate], the “prodrug conversion/drug production of NO” value in data set [6] (absence of enzyme) was “no prodrug conversion/drug production of NO is observed”. The administered dose converted result in data set [6] (within 30 min of incubation, b-Galactosidase PVA hydrogels) was “approximately 50%”.

Regarding `O=C1OC2(c3ccc(O[C@@H]4O[C@H](C(=O)O)[C@@H](O)[C@H](O)[C@H]4O)cc3Oc3cc(O[C@@H]4O[C@H](C(=O)O)[C@@H](O)[C@H](O)[C@H]4O)ccc32)c2ccccc21` [fluorescein di-glucuronide], the “fluorescence of cells over time” value in data set [7] (SMEPT, 0.025 and 0.25 μg/mL, earliest time-point 1 h) is recorded as “pronounced increase in the fluorescence of cells”. In addition, the “levels of cellular fluorescence (cargo internalization)” value in data set [7] (SMEPT) is reported as “comparable to that produced by a solution based administration”; in data set [7] (SMEPT, listed as fluorescein diglucuronide) it was “comparable levels of fluorescence of cultured cells”. Further, the “fluorescence of cultured cells” value in data set [7] is listed as “fluorescence identical to pristine, non-treated cells”; in data set [7] (listed as fluorescein diglucuronide), “negligible change in the fluorescence of cultured cells”. Also, in data set [8] (identical prodrug concentration), the “amount of product synthesized in unit time, 3 versus 1 layers of adsorbed protein” value is “approximately 3 ×”. Also, the “concentration of the product” value was under 10 nm in data set [8] (single layer of the enzyme) and “over 30 nM” in data set [8] (three protein layers).
